According to patent publication US4550186A, “Binuclear copper (II) carboxylates formed from amine-carboxyboranes” (Duke University, priority 1983, dated 1985):

Tests used:
[1] = tested on: Cholesterol Side Chain Oxidation; experiment: In vitro liver enzyme study: cholesterol side chain oxidation; type: biochemical, mouse
Experimental: In vitro enzymatic studies were determined using 10% homogenates of CF1 male mouse liver with 50-200 μM of test drugs. In vivo enzymatic studies were determined using 10% homogenates of liver from CF1 male mice obtained after administering the agents for 16 days at a dose ranging from 2.5-20 mg/kg/day intraperitoneally. The liver homogenates for both in vitro and in vivo studies were prepared in 0.25M sucrose and 0.001M (ethylenedinitrilo)tetraacetic acid. Acetyl coenzyme A synthetase and adenosine triphosphate dependent citrate lyase activities were determined spectrophotometrically at 540 nm as the hydroxylamate of acetyl coenzyme A formed after 30 min at 37° C. Mitochondrial citrate exchange was determined by the procedure of Robinson et al [Eur. J. Biochem., 216, 63 (1970)] using ^14 C-sodium bicarbonate (41 mCi/mmol) incorporated into mitochondrial ^14 C-citrate after isolating rat mitochondria (9000 g×10 min) from the homogenates. The exchanges of the ^14 C-citrate were determined after incubating the mitochondrial fraction which was loaded with labeled citrate and test drugs for 10 min. Then the radioactivity was measured in the mitochondrial and supernantant fractions in scintillation fluid and expressed as a percentage. […] Acyl transferase activity was determined with glycerol-3phosphate [L-2-^3 H(N)] […] HCl and counted. […]

[2] = tested on: ribonucleic acid synthesis of Ehrlich ascites cells; experiment: In vivo uridine incorporation into ribonucleic acid; parameters: species or system mouse
Experimental: CF1 male mice (~30 g) were implanted with 2×10^6 Ehrlich ascites tumor cells, intraperitoneally on Day 0. Compound I was suspended by homogenation in 0.05% polysorbate.80-water and administered intraperitoneally at 10 and 20 mg/kg for 9 days to determine its effectiveness for inhibition of tumor growth. Mice were sacrificed on Day 10, and the ascites fluid was collected from the peritoneal cavity. The volume and ascrit (packed cell volume) were determined for each animal and the percent inhibition of tumor growth was calculated. For the metabolic studies, mice were treated on Days 8 and 9 with 10 mg/kg of Compound I, intraperitoneally. The animal was sacrificed on Day 10 and the ascites fluid harvested. […]
For in vivo studies, incorporation of thymidine into deoxyribonucleic acid was determined by the method of Chae et al [Proc. Am. […] The deoxyribonucleic acid was isolated and the tritium content was determined in a toluene based scintillation fluid. The deoxyribonucleic acid concentration was determined by the diphenylamine reaction using calf thymus deoxyribonucleic acid as a standard. Uridine incorporation into ribonucleic acid was determined using 10 μCi of 5,6-^3 H-uridine (22.4 Ci/mmol). […] Leucine incorporation into protein was determined by the method of Sartorelli [Biochem. Biophys. […] Protein content was determined by the Lowry procedure using bovine serum albumin as a standard.

[3] = tested on: Ehrlich ascites lysate protein synthesis; experiment: Initiation/elongation of Ehrlich ascites lysate protein synthesis; type: biochemical, mouse; details: compared with pyrocatechol violet and emetine
Experimental: An in vitro method was used to determine if compound I was an initiation or an elongation inhibitor of Ehrlich ascites lysate protein synthesis by comparing inhibition with known standards, pyrocateochol violet and emetine, using 1 μCi ^3 H-leucine (24.7 Ci/mmol). The reaction medium was spotted on Whatman #1 filter paper disks, which after drying were treated for 10 min in boiling 5% trichloroacetic acid, for 10 min in cold 5% trichloroacetic acid and washed with cold 5% trichloroacetic acid, ether/ethanol (4:1) and ether. The disks were dried and counted.

Substance: {Cu[(CH3)3 N.BH2 CO2 ]2.(CH3)3 N.BH2 COOH} [Compound I]
- Cholesterol Side Chain Oxidation ([1]; in vitro CF1 liver, 100 μM): 152 ± 7 Percent Control
- degradation of cholesterol by oxidation of the side chain accelerated ([1]; in vitro, in the presence of drug): 52%
- 3H-Uridine incorporation into ribonucleic acid ([2]; 10 mg/kg/day I.P. on Days 8 and 9): 116 ± 10 % Control
- uridine incorporation into ribonucleic acid ([2]; 10 day Ehrlich ascites cells): unaffected
- inhibition of protein synthesis of Ehrlich ascites lysates (initiation vs elongation) [3]: lag of several minutes before inhibition is observed
